The source of these data is US20030032807A1, “Method for the production of 1-amino -3-aryl -uracils” (priority 2000, published 2003).

The data set can be described thus: logP determination by HPLC on reversed-phase column (C 18), EEC Directive 79/831 Annex V.A8. It is filed as physicochemical. As to conditions: reversed-phase HPLC column (C 18); at pH=2.3; acid range eluents 0.1% aqueous phosphoric acid/acetonitrile; 43° C. How it is done:
The determination of the logP value given in Example 1 was carried out according to EEC Directive 79/831 Annex V.A8 by HPLC (High Performance Liquid Chromatography) using a reversed-phase column (C 18). Temperature: 43° C. (a) Eluents for determination in the acid range: 0.1% aqueous phosphoric acid, acetonitrile; linear gradient from 10% acetonitrile to 90% acetonitrile—corresponding measurements are marked in Table 1 by ^a). (b) Eluents for determination in the neutral range: […] aqueous phosphate buffer solution, acetonitrile; linear gradient of 10% acetonitrile to 90% acetonitrile—corresponding measurements are marked in Table 1 by ^b). Calibration was carried out using unbranched alkan-2-ones (having from 3 to 16 carbon atoms), whose logP values are known (determination of logP values using the retention times by linear interpolation between two consecutive alkanones).

In the case of `Nn1c(C(F)(F)F)cc(=O)n(-c2ccc(Br)cc2F)c1=O` [Example 1, 1-amino-3-(4-bromo-2-fluorophenyl)-6-trifluoromethyl-2,4-(1H,3H)-pyrimidinedione], the chromatographic logP came out at 2.41. `CCS(=O)(=O)N(C(=O)c1ccccc1)c1cc(-n2c(=O)cc(C(F)(F)F)n(N)c2=O)c(F)cc1C#N` [Example 8, N-benzoyl-N-[2-cyano-5-(3-amino-2,6-dioxo-4-trifluoromethyl-3,6-dihydro-1-(2H)-pyrimidinyl)-4-fluorophenyl]ethanesulphonamide] yielded a chromatographic logP of 2.82.
